Measured values published in US6194383A, “Lipopeptides from actinoplanes sp. with pharmacological action, process for their production and the use thereof” (Hoechst Aktiengesellschaft, priority 1993, dated 2001).

Key:
Assay type in all cases: cell-based
relevant organisms = experiment: agar dilution test, MIC, in vitro activity (AB spectrum); conditions: Muller-Hinton agar, 37° C., 24 hours
Description: (§1) The sensitivity of relevant organisms to the A 1437 lipopeptides is determined by an agar dilution test. The agar used is Muller-Hinton agar to which, in the case of S. pyogenes and the Enterococci, 10% horse blood is added. The antibiotic-containing plates are inoculated using a multichannel inoculator (5×10^4 cfu/inoculation site of a stationary culture of the particular strain). The MIC values (minimum inhibitory concentration) are read off at 37° C. The MIC is defined as the concentration of the antibiotic at which no visible growth of the organisms is detectable after incubation for 24 hours. The amphomycin used as control was obtained from Boehringer Mannheim (Germany). Amphomycin can be obtained as fine chemical therefrom.

Enterococcus faecium VR1 = experiment: agar dilution test, MIC, vancomycin-resistant strains; conditions: Muller-Hinton agar with 10% horse blood, 37° C., 24 hours
Description: as §1

Enterococcus faecium VR2 = experiment: as above; conditions: Muller-Hinton agar with 10% horse blood, 37° C., 24 hours
Description: as §1

Streptococcus pyogenes = experiment: agar dilution test, MIC, vancomycin-resistant strains table; conditions: Muller-Hinton agar with 10% horse blood, 37° C., 24 hours
Description: as §1

[1] = 1st of 6 value columns, strain not given
[2] = 2nd of 6 value columns, strain head not printed
[3] = 3rd of 6 value columns, strain not given
[4] = 4th of 6 value columns, strain not given
[5] = 5th of 6 value columns, strain not given
[6] = 6th of 6 value columns, strain head not printed

Substance | MIC, in vitro activity (AB spectrum), concentration (relevant organisms; [1]) [µg/mL] | MIC, in vitro activity (AB spectrum), concentration (relevant organisms; [2]) [µg/mL] | MIC, in vitro activity (AB spectrum), concentration (relevant organisms; [3]) [µg/mL] | MIC, in vitro activity (AB spectrum), concentration (relevant organisms; [4]) [µg/mL] | MIC, in vitro activity (AB spectrum), concentration (relevant organisms; [5]) [µg/mL] | MIC, in vitro activity (AB spectrum), concentration (relevant organisms; [6]) [µg/mL] | MIC, in vitro activity (vancomycin-resistant strains), concentration (Enterococcus faecium VR1) [µg/mL] | MIC, in vitro activity (vancomycin-resistant strains), concentration (Enterococcus faecium VR2) [µg/mL] | MIC, in vitro activity (vancomycin-resistant strains), concentration (Streptococcus pyogenes) [µg/mL]
Amphomycin [reference compound] | 0.195 | 0.781 | 0.391 | 1.56 | 0.391 | 1.56 | 4 | 4 | 2
aiC13 -fatty acid-Asn-Dab-Pip-MeAsp-Asp-Gly-Asp-Gly-Dab-Val-Pro [A 1437 F] | 0.098 | 0.391 | 0.195 | 1.56 | 0.781 | 1.56 | 4 | 4 | 1
aiC15 -fatty acid-Asn-Dab-Pip-MeAsp-Asp-Gly-Asp-Gly-Dab-Val-Pro [A 1437 H] | 0.049 | 0.098 | 0.049 | 0.195 | 0.049 | 0.195 | 1 | 1 | 0.5
aiC15 -fatty acid-Asp-Dab-Pip-MeAsp-Asp-Gly-Asp-Gly-Dab-Val-Pro [A 1437 G] | 0.098 | 0.195 | 0.049 | 0.088 | 0.025 | 0.195 | 0.25 | 0.25 | 0.125
iC13 -fatty acid-Asp-Dab-Pip-MeAsp-Asp-Gly-Asp-Gly-Dab-Val-Pro [A 1437 A] | 0.391 | 0.781 | 0.391 | 1.56 | 0.391 | 3.13 |  |  | 
iC14 -fatty acid-Asn-Dab-Pip-MeAsp-Asp-Gly-Asp-Gly-Dab-Val-Pro [A 1437 D] | 0.049 | 0.195 | 0.049 | 0.781 | 0.391 | 0.781 | 2 | 2 | 1
iC14 -fatty acid-Asp-Dab-Pip-MeAsp-Asp-Gly-Asp-Gly-Dab-Val-Pro [A 1437 B] | 0.098 | 0.195 | 0.098 | 0.195 | 0.049 | 0.391 | 1 | 1 | 0.5
ic13 -fatty acid-Asn-Dab-Pip-MeAsp-Asp-Gly-Asp-Gly-Dab-Val-Pro [A 1437 C] | 0.195 | 0.781 | 0.391 | 3.13 | 0.781 | 3.13 | 4 | 4 | 4
